# Numbered stars: 1 amine (or outer) side, 2 acyl side, 3 side chain; on linkers, the order of the positions; unused ones are H or OH. Ends that are not written are not given here. Peptide text beside a SMILES is read from it. * marks the point of attachment. Glutaryl = O=C(CCCC(=O)[*:2])[*:1]; AMC = Cc1cc(=O)oc2cc(N*)ccc12
# How the values were obtained:
# Pd_dinase [1] = test: Fluorescent protease assay with AMC substrates, Pd_dinase; type: biochemical, Parabacteroidetes distasonis; conditions: 8 nM Pd_dinase, 50 μM substrate, 30 min, D-PBS, 2 mM DTT
# human aminopeptidase B = human aminopeptidase B (Homo sapiens, UniProt Q9H4A4); test: Fluorescent protease assay with AMC substrates, aminopeptidase B; type: biochemical; conditions: 2 nM human aminopeptidase B, 50 μM substrate, 30 min, D-PBS, 2 mM DTT
# human aminopeptidase B, sequence (Q9H4A4 whole entry): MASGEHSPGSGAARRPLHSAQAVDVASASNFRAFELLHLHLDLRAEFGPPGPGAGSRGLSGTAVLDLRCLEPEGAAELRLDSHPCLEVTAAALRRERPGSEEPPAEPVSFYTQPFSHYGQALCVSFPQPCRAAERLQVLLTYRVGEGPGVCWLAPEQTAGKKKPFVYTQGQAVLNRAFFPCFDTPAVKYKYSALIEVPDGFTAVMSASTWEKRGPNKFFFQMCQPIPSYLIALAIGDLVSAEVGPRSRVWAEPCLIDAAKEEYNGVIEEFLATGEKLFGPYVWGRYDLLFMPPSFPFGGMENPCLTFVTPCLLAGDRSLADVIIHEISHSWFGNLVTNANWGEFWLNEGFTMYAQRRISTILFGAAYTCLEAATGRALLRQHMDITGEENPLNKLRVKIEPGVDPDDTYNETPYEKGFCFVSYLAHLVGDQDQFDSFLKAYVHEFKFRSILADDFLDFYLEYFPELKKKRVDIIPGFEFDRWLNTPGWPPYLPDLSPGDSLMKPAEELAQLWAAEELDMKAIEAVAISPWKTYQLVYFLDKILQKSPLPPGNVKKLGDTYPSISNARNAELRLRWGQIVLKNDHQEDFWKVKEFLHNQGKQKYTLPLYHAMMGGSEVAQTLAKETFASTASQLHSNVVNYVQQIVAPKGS
# bovine trypsin = target: T1, bovine trypsin (Bos taurus, UniProt P00760); test: Fluorescent protease assay with AMC substrates, trypsin; type: biochemical; conditions: 100 nM bovine trypsin, 50 μM substrate, 30 min, D-PBS, 2 mM DTT
# T1 sequence (P00760 24-246): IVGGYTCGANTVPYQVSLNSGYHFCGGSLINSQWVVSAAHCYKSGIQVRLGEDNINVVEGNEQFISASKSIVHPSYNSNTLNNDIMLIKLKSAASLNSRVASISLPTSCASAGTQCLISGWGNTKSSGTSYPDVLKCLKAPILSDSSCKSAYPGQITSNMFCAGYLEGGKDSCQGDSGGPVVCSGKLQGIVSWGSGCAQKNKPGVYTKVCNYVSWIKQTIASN
# Pd_dinase [2] = test: Antimicrobial peptide digestion by Pd_dinase, LC-MS/MS; type: in vitro ADME, Parabacteroidetes distasonis
# Pseudomonas aeruginosa = conditions: cited from earlier work
# E. coli = conditions: cited from earlier work
# Streptococcus pyogenes = conditions: cited from earlier work
# Staphylococcus aureus = conditions: cited from earlier work
# Pd_dinase [3] = test: Pd_dinase; conditions: Parabacteroidetes distasonis, up to 30 min
# aminopeptidase B = test: human aminopeptidase B; conditions: up to 30 min
# Pd_dinase [4] = test: 10 nM of Pd_dinase incubated with each antimicrobial peptide; conditions: Parabacteroidetes distasonis, up to 1200 min
# trypsin = test: bovine trypsin; conditions: up to 30 min
# Pd_dinase [5] = test: Inhibition of Pd_dinase by peptide-AOMK inhibitors; type: biochemical, Parabacteroidetes distasonis; conditions: 50 μM inhibitor, 2 nM Pd_dinase, 50 μM substrate, activity monitored for 4 h
compound,measurement,setting,value
"Cc1cc(=O)oc2cc(NC(=O)[C@@H](N)CCCN=C(N)N)ccc12 [Arg-AMC, NH2-arginine-AMC]",cleavage of AMC substrate by Pd_dinase,Pd_dinase [1],does not cleave
same,cleavage of AMC substrate by aminopeptidase B,human aminopeptidase B,only cleaved
same,cleavage of AMC substrate by trypsin,bovine trypsin,failed to hydrolyze
"Cc1cc(=O)oc2cc(NC(=O)[C@H](CCCNC(=N)N)NC(=O)CN)ccc12 [Gly-Arg-AMC, NH2-Gly-Arg-AMC] (H-Gly-Arg-{AMC})",cleavage of AMC substrate by Pd_dinase,Pd_dinase [1],rapidly hydrolyzes
AIGGGLSSVGGGS [KAMP-13],"metabolised at 20 h, 5 μM","Pd_dinase [2]; Parabacteroidetes distasonis, isolated protease Pd dinase (10 nM)",15.5%
GGLSSVGGGSSTIK [KAMP-14],degradation by Pd_dinase,"Pd_dinase [2]; 10 nM Pd_dinase, 5 μM peptide, 5 to 1200 min, triplicate, LC-MS/MS",degraded into a 12-mer peptide
same,bactericidal activity,Pseudomonas aeruginosa,bactericidal
same,bactericidal activity,E. coli,bactericidal
same,bactericidal activity,Streptococcus pyogenes,bactericidal
same,bactericidal activity,Staphylococcus aureus,bactericidal
Glutaryl-Gly-Arg-{AMC},not cleaved,Pd_dinase [3],does not cleave Glt-Gly-Arg-AMC
same,not cleaved,aminopeptidase B,aminopeptidase B only cleaved Arg-AMC
Glutaryl-Gly-Arg-{AMC} [Glt-Gly-Arg-AMC],cleavage of AMC substrate by Pd_dinase,Pd_dinase [1],does not cleave
same,rate of cleavage by trypsin relative to Gly-Arg-AMC,bovine trypsin,80 fold
H-AIGGGLSSVGGGS-OH,cleaved bond,Pd_dinase [4],"Ile-G, minor"
same,fragment found,Pd_dinase [4],9-mer peptide
H-Gly-Arg-{AMC},not cleaved,aminopeptidase B,aminopeptidase B only cleaved Arg-AMC
NH2-arginine-AMC,not cleaved,Pd_dinase [3],does not cleave Arg-AMC
same,not cleaved,trypsin,failed to hydrolyze Arg-AMC
NH2-glycine-arginine-AOMK [Gly-Arg-AOMK],effect on Pd_dinase activity,Pd_dinase [5],completely inhibited
